Experimental data published in US20250368687A1, “SHORT SYNTHETIC PEPTIDES AND USES THEREOF IN THE TREATMENT OF ENTEROVIRUS INFECTION” (CITY UNIVERSITY OF HONG KONG, priority 2024, published 2025).

Tests used:
[1] = test system: Hsp27 phosphorylation on Ser 15, 78, 82; experiment: Western blot of Hsp27 phosphorylation in EV-A71-infected RD cells; assay type: cell-based; conditions: for inhibition of Hsp27 Ser78 phosphorylation: peptide pre-treatment 2 hours
Experimental: RD cells were treated with SB203580 at indicated concentration for 2 hours, then infected with EV-A71 at the MOI of 10 for 6 hours. Cell lysates were collected for western blot assay. Hsp27 phosphorylation on Ser 15, 78, 82 were detected by specific antibodies. GAPDH were detected as internal control.
FIGS. 10A-10K. […] (FIG. 10A) RD cells were pre-treated with peptides S78 or for 2 hours and infected with EV-A71 at the MOI of 10 for 6 hours. Cell lysates were collected for western blot assay. Hsp27 phosphorylation on Ser 15, 78, 82 were detected by specific antibodies. β-Actin were detected as internal control. (FIG. 10B) Densitometric analysis of FIG. 9A. (FIG. 10C) HEK 293T cells were pre-treated with peptides S78 or S78A at the concentration of 25 μM for 2 hours and then co-transfected with Hsp27-WT plasmid (800 ng), pIRES reporter plasmid (200 ng) and 2A^pro-expressing plasmid or 2AC110A-expressing plasmid (200 ng) for 24 h, then the luciferase activity was measured. (FIG. 10D-10E) RD cells were treated with peptides S78 or S78A and then infected with EV-A71. EV-A71 VP1 were detected. (FIG. 10F) RD cells were treated with peptides and then infected with EV-A71 at the MOI of 1 for 12 hours. The EV-A71-induced CPE was captured. (FIG. 10G-10H) Intracellular viral RNA was extracted and quantified by qPCR. (FIG. 10I) Densitometric analysis FIG. 9D-E. (FIG. 10J) RD cells were treated with peptides S78 or and then infected with EV-A71 at the MOI of 1 for 12 hours. Extracellular viral RNA was extracted and quantified by qPCR. (FIG. 10K) Viral titration was calculated by TCID50. The Statistical analyses were carried out using Student's t-test. *: p<0.05, **: p<0.01, ***: p<0.001. Data are expressed as mean ±SD.
After cell lysis in Nonidet-P40 (NP-40) buffer, the cell lysates were centrifuged, and the concentration was determined by Bradford assay (Bio-Rad). 20 μg of protein was used for 12% SDS-PAGE and transferred onto polyvinylidene fluoride membrane (PVDF) (GE, MA, USA). Following 5% bovine serum albumin (BSA) blocking for 1 hrs, the membrane was incubated with antibodies (1:1000) against Hsp27 (sc-13132), pHsp27-Ser15 (ab76313), pHsp27-Ser78 (ADI-SPA-523), pHsp27-Ser82 (ab155987), VP1 (GTX132339), β-Actin (sc-47778), hnRNP A1 (sc-32301), or GAPDH (sc-32233) overnight in 4° C. After secondary antibodies (HRP-conjugated Affinipure Goat Anti-Mouse IgG(H+L), SA00001-1, and HRP-conjugated Affinipure Goat Anti-Rabbit IgG(H+L), SA00001-2) incubation for 1 hrs, the protein was visualized with a chemiluminescence reagent (PerkinElmer, MA, USA) on Bio-Rad Chemidoc Imaging System. The protein bands were quantified by densitometry with ImageJ if necessary.
In this example, the effect of EV-A71 infection on Hsp27 phosphorylation was investigated. […] Then, the phosphorylation status of Hsp27 upon virus infection under the treatment with a p38 inhibitor was examined, as the phosphorylation of Hsp27 could be resulted from p38 signaling activation. To this purpose, the cells were first treated with p38 kinase inhibitor −SB203580 at different concentrations (0, 0.25, 0.5, 1, 2, 4, and 8 μM) and the phosphorylation level of Hsp27 upon EV-A71 infection was examined by western blot assay.

[2] = test system: Hsp27 and hnRNP A1 redistribution in RD cells; experiment: Immunofluorescence colocalization assay of Hsp27/hnRNP A1 redistribution, RD cells with or without EV-A71 infection; assay type: cell-based; conditions: for fraction of Hsp27 overlapping DAPI (M1 colocalization coefficient): EV-A71-infected RD cells; for redistribution of Hsp27 and hnRNP A1 in EV-A71-infected RD cells / localization of Hsp27 and hnRNP A1 in mock RD cells: 25 μM for 2h; for redistribution of Hsp27 and hnRNP A1 in EV-A71-infected RD cells: EV-A71 MOI 40 for 6h; for localization of Hsp27 and hnRNP A1 in mock RD cells: without EV-A71
Experimental: The cells on coverslips were infected with EV-A71 at the multiplicity of infection (MOI) of 40 for 6 hrs to assure the high efficiency of viral infection. Then the cells were fixed by 4% paraformaldehyde for 20 min, permeabilized by 0.5% Triton X-100 for 15 min, blocked with 5% BSA for 2 hrs, and stained by incubation with anti-Hsp27 (GTX101145) and anti-hnRNP A1 (sc-32301) antibody, then with Alexa Fluor 488 conjugated anti-rabbit antibody and Alexa Fluor 594 conjugated anti-mouse antibody respectively. After washing four times with 0.2% Triton X-100, the nuclei were stained with DAPI or Hoechst for 5 min. The images were captured by a Nikon A1HD25 High speed and Large Field of View Confocal Microscope. Colocalization analysis was conducted using the JACoP-plugin of the extended ImageJ version Fiji. The M1 colocalization coefficient was computed to illustrate the colocalization levels of Hsp27 and hnRNP A1 overlapped with Hoechst.
Hsp27 is predominantly located in the cytoplasm, however, stress (e.g., heat shock, virus infection) can induce partial redistribution of Hsp27 from the cytoplasm to the nucleus, concomitantly with its phosphorylation. We thus postulated that the cellular redistribution of Hsp27 may be associated with its phosphorylation upon EV-A71 infection. To verify the hypothesis, RD cells were with SB203580 at 0, 2, 4, and 8 μM for 2 h, and the cells were infected with EV-A71 for 6 h. […] The colocalization of Hsp27 and DAPI, which stands for the level of redistribution of Hsp27, was also quantified. The colocalization coefficient M1 was computed as the fraction of Hsp27 colocalized with DAPI in the total Hsp27 area using the JACoP-plugin in FIJI.
We hypothesized that peptides S78 and S82A could interfere with Ser78 phosphorylation while peptides S78A (Ser78 replaced by Ala78) would not affect the phosphorylation of Ser78 of Hsp27. […] RD cells were pre-treated with peptide S78, S78A or S82A at the concentrations of 25 μM for 2h and then infected with or without EV-A71 at an MOI of 40 for 6h.

[3] = SB203580 0-8 μM for 2 hours, EV-A71 MOI 10 for 6 hours, RD cells
[4] = EV-A71 MOI 10 for 6 hours, RD cells

C[S+]([O-])c1ccc(-c2nc(-c3ccncc3)c(-c3ccc(F)cc3)[nH]2)cc1 (stereo not shown) [SB203580, reference compound]
reduction of phosphorylation level at Ser78 (densitometry) ([1]; 8 μM, EV-A71-infected RD cells): over 85% | phosphorylation level of Hsp27 at Ser15 [1, 3]: slightly decreased | phosphorylation level of Hsp27 at Ser82 [1, 3]: slightly decreased | phosphorylation of Hsp27 at Ser78 [1, 3]: markedly suppressed in a dose-dependent manner | fraction of Hsp27 overlapping DAPI (M1 colocalization coefficient) ([2]; 0, 2, 4, 8 μM): reduced in a dose-dependent manner | nuclear Hsp27 level upon EV-A71 infection ([2]; 2 μM for 2 h, EV-A71 6 h, RD cells): markedly reduced | nuclear relocation of Hsp27 upon EV-A71 infection ([2]; 4 μM for 2 h, EV-A71 6 h, RD cells): further blocked to an invisible level | fraction of Hsp27 overlapping DAPI (M1 colocalization coefficient) ([2]; 8 μM): reduced to the basal level | Hsp27 translocation to the nucleus without EV-A71 infection ([2]; RD cells without EV-A71 infection): not translocated to the nucleus

Ac-RKKRRQRRRAYSRALARQLSS-NH2 [S78A]
inhibition of Hsp27 Ser78 phosphorylation [1, 4]: less inhibition | redistribution of Hsp27 and hnRNP A1 in EV-A71-infected RD cells [2]: only partially reduced | localization of Hsp27 and hnRNP A1 in mock RD cells [2]: not affected

Ac-RKKRRQRRRAYSRALSRQLSS-NH2 [S78]
inhibition of Hsp27 Ser78 phosphorylation [1, 4]: dramatically inhibited | redistribution of Hsp27 and hnRNP A1 in EV-A71-infected RD cells [2]: dramatically blocked | localization of Hsp27 and hnRNP A1 in mock RD cells [2]: not affected

Ac-RKKRRQRRRYSREANQPKPSPKRESGEE-NH2 [NC, reference compound]
redistribution of Hsp27 and hnRNP A1 in EV-A71-infected RD cells [2]: did not affect
